Measured values as given in patent publication US20160250127A1, “USE OF A POLYOL IN THE REMINERALISATION OF ENAMEL” (ROQUETTE FRERES, priority 2013, published 2016).

System: early carious lesions (enamel lesions of anterior maxillary teeth)
Test: QLF analysis of enamel lesion remineralization, 6-month clinical study of sugar-free chewing gums
Type: in vivo, human
Conditions: for stopping and reversing the oral white lesions, compared with the two control groups: 6-month study; for ΔF compared with gumbase group and control group without gum: after 3 months, P<0.01; for ΔF compared with the two control groups (gumbase and no gum) / ΔQ compared with the two control groups (gumbase and no gum): after 6 months, p<0.01
Text: The QLF™ (Quantitative Light-induced Fluorescence) method is a dental diagnostic tool for the quantitative evaluation, in vivo and in vitro, of dental carious lesions. The apparatus is equipped with a camera and is connected to a computer (using a program specific to QLF™). The probe, which emits a blue light (xenon lamp+filter), is passed over the tooth tested, which retransmits this light in the form of fluorescence. […] This photograph or instantaneous image is then processed using the software of the QLF™ which then recreates a reconstituted image representing the carious lesion. With this method, the real-time fluorescent images are entered into the computer and stored in an image database. Quantitative analysis of the images allows the user to quantify parameters such as loss of minerals, lesion depth, lesion size, size of the spots present on the teeth and seriousness of the various lesions with great precision and repeatability. The QLF™ method is based on the autofluorescence of the teeth. When the teeth are illuminated by the high-intensity blue light, they will begin to emit light in the green part of the spectrum. The intensity of the fluorescence of the dental material is directly related to the mineral content of the enamel. Since the QLF™ method uses fluorescence to reveal the dental carie, the contrast between the demineralized enamel and the healthy enamel is increased. Thus, the absence of specular reflection in the images obtained by the QLF™ method facilitates the calculation of the size and seriousness of the lesion by the digital image processing system. Evaluation of the efficacy against caries of a sugar-free chewing gum containing maltitol sold by the applicant under the brand SweetPearl™ using a study model consisting of various appropriate control groups (gum and maltitol, gum and xylitol, gum without polyol and no chewing gum) and the QLF™ method. Children from 8 to 13 years old, in good health, were included in the study. Their parents were informed about the study by the teachers of the school and signed an informed consent form. […] In total, 420 pupils completed a six-month study. This study is a double-blind (subjects, caregivers and examiners), multicenter, parallel, random clinical study carried out in schools. The evaluation of the dental plaque uses the Silness method and the Loe index. The digital images were taken using a digital photographic apparatus, and those of the QLF™ method were taken using the QLF™ apparatus separately. Before this examination, all the dental plaque was removed from the surface of the teeth. All the procedures were supervised by qualified personnel (dentists/hygienists). The QLF™ method was used to monitor the evolution of demineralization and remineralization of the enamel lesions. During the visit, fluorescent images were taken of the six (or fewer) anterior maxillary teeth. An image of each tooth was taken at each visit in order to ensure that all the anterior teeth were photographed. All the images taken using the QLF™ apparatus were analyzed by an experienced individual in order to determine the “mineral condition” of each tooth, using proprietory software (QLF 2.00, Inspektor, The Netherlands). The QLF™ method makes it possible to control three distinct parameters: ΔF, the area of the lesion and ΔQ. ΔF is the percentage loss of fluorescence between the comparison of a healthy enamel and an identified lesion. The detection threshold for ΔF is 5%, which means that a loss of fluorescence below this threshold is considered to be background noise and therefore not significant. The area of the lesion is calculated by means of the pixels taken into account by the analysis software as representing the demineralized enamel (i.e. those with a loss of fluorescence of at least 5%). ΔQ is the product of ΔF multiplied by the area of the lesion and represents the volume of this lesion. […]

[1] = 3 Months, 2 chewing gums (up to 60% polyol) 5 times per day
[2] = 6 Months, 2 chewing gums (up to 60% polyol) 5 times per day
[3] = Baseline, children 8-13 years, mean ± spread

Compound	QLF parameter Area (area of the lesion) [1]	QLF parameter ΔF (percentage loss of fluorescence) [1]	QLF parameter ΔQ (ΔF multiplied by area of the lesion) [1]	stopping and reversing the oral white lesions, compared with the two control groups	QLF parameter Area (area of the lesion) [2]	QLF parameter ΔF (percentage loss of fluorescence) [2]	QLF parameter ΔQ (ΔF multiplied by area of the lesion) [2]	QLF parameter ΔF (percentage loss of fluorescence) (Baseline, children 8-13 years)	QLF parameter ΔQ (ΔF multiplied by area of the lesion) (Baseline, children 8-13 years)	QLF parameter Area (area of the lesion) [3]	ΔF compared with gumbase group and control group without gum	ΔF compared with the two control groups (gumbase and no gum)	ΔQ compared with the two control groups (gumbase and no gum)
OC[C@@H](O)[C@@H](O[C@H]1O[C@H](CO)[C@@H](O)[C@H](O)[C@H]1O)[C@H](O)[C@@H](O)CO [Maltitol, maltitol]	2.33 ± 1.90	−8.78 ± 1.78	−20.62 ± 18.97	significantly more effective	2.18 ± 1.63	−8.42 ± 1.87	−16.69 ± 15.15	−9.38 ± 1.79	−24.87 ± 23.06	2.47 ± 1.95	significantly different	considerable differences	considerable differences
OC[C@@H](O)[C@H](O)[C@@H](O)CO [Xylitol, xylitol]	2.43 ± 1.72	−8.56 ± 2.02	−22.10 ± 18.85	significantly more effective	2.31 ± 1.85	−8.37 ± 1.78	−18.19 ± 21.29	−9.36 ± 1.92	−25.95 ± 24.66	2.58 ± 1.91	significantly different	considerable differences	considerable differences
